Reference: PubChem BioAssay (NCI)
Values joined by “and” are separate entries in the source; they are usually repeats but may differ in a detail not shown here. Identical values can stand only once.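 Test compounds were applied to cells in 96-well plates for 48 hours at 5 doses. GI50 marks 50% less growth. Definition used: TGI = concentration required for complete inhibition of growth.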

Tests used:
Experiment in all cases: growth of human tumour cells (NCI), 48 h
UO-31 renal = tested on: UO-31 renal
UACC-62 melanoma = tested on: UACC-62 melanoma
EKVX NSCLC = tested on: EKVX NSCLC
LOX IMVI melanoma = tested on: LOX IMVI melanoma
ACHN renal = tested on: ACHN renal
MCF7 breast = tested on: MCF7 breast
SK-MEL-5 melanoma = tested on: SK-MEL-5 melanoma
SK-OV-3 ovarian = tested on: SK-OV-3 ovarian
NCI/ADR-RES ovarian = tested on: NCI/ADR-RES ovarian
T-47D breast = tested on: T-47D breast

Compound | TGI (UO-31 renal) | TGI (UACC-62 melanoma) | TGI (EKVX NSCLC) | TGI (LOX IMVI melanoma) | TGI (ACHN renal) | TGI (MCF7 breast) | TGI (SK-MEL-5 melanoma) | TGI (SK-OV-3 ovarian) | TGI (NCI/ADR-RES ovarian) | TGI (T-47D breast) | GI50 (LOX IMVI melanoma) | GI50 (ACHN renal) | GI50 (SK-MEL-5 melanoma) | GI50 (SK-OV-3 ovarian) | GI50 (NCI/ADR-RES ovarian) | GI50 (T-47D breast)
O=C(N/N=C/c1ccc(Cl)cc1)c1c(Cl)c(Cl)c(Cl)c(Cl)c1-c1nc2ccccc2[nH]1 | > 100 µM | > 100 µM | > 100 µM | > 100 µM | > 100 µM | > 100 µM | > 100 µM | > 100 µM | > 100 µM | 47.5 µM | – | – | – | – | – | –
COc1nncc2[nH]c(-c3ccccc3)cc12 | > 100 µM | > 100 µM | > 100 µM | > 100 µM | > 100 µM | > 100 µM | > 100 µM | > 100 µM | > 100 µM | > 100 µM | – | – | – | – | – | –
CCCCCC1=CC(=O)C1(Cl)Cl | 38.2 µM | 32.2 µM | 49.6 µM | 21.2 µM | 23.4 µM | 31.6 µM | 24 µM | 85.4 µM | 86.6 µM | > 52.2 µM | – | – | – | – | – | –
CC(=O)Oc1cccc2c1C(=O)CCCC2 | > 100 µM | > 100 µM | > 100 µM | > 100 µM | > 100 µM | > 100 µM | > 100 µM | > 100 µM | > 100 µM | > 100 µM | – | – | – | – | – | –
COC(=O)C1=C(C(=O)OC)SC(=C2SCSC3=C2SC(C(=O)OC)=C(C(=O)OC)C32SC3=C(CCCC3)S2)S1 | > 100 µM | > 100 µM | > 100 µM | > 100 µM | > 100 µM | > 100 µM | > 100 µM | > 100 µM | > 100 µM | > 100 µM | – | – | – | – | – | –
Cc1cccc(Cn2c3c(c4cc(O)ccc42)C(=O)c2ccccc2C3=O)c1 | > 100 µM | > 100 µM | 49 µM | > 100 µM | > 100 µM | 98.1 µM | > 100 µM | > 29.9 µM | > 67.8 µM | > 100 µM | – | – | – | – | – | –
O=C(OCc1ccccc1)N1CCNCCN(C(=O)OCc2ccccc2)CCNCC1 | 38.5 µM | 70.3 µM | > 100 µM | 27.5 µM | > 100 µM | 38.8 µM | 26.7 µM | > 100 µM | > 100 µM | 32.7 µM | – | – | – | – | – | –
C[C@]12CC[C@H](O)CC1=CC[C@@H]1[C@@H]2CC[C@]2(C)C(=N/N)/C(=N\O)C[C@@H]12 | > 100 µM | > 100 µM | > 100 µM | > 100 µM | > 100 µM | > 100 µM | > 100 µM | > 100 µM | > 100 µM | > 100 µM | – | – | – | – | – | –
CCC(=O)NCC1CCCN2CCCCC12 (stereo unspecified) | > 100 µM | > 100 µM | > 100 µM | > 100 µM | > 100 µM | > 100 µM | > 100 µM | > 100 µM | > 100 µM | > 100 µM | – | – | – | – | – | –
CCOC(=O)c1c(CN2CCCC2)n(-c2ccccc2)c2cc(Br)c(O)cc12 | 24.5 µM | 31.1 µM | 39.7 µM | 29.8 µM | 44.9 µM | 39.5 µM | 26.4 µM | 66.5 µM | 57.9 µM | 47 µM | – | – | – | – | – | –
O=C(c1ccccn1)C1(N2CCCCC2)CCCCC1 | > 100 µM | > 100 µM | > 100 µM | > 100 µM | > 100 µM | > 100 µM | > 100 µM | > 100 µM | > 100 µM | > 100 µM | – | – | – | – | – | –
COc1ccc(-c2[nH]c3c4c(nc5c(c24)C(=O)CC(C)(C)C5)CC(C)(C)C3)cc1 | > 100 µM | > 100 µM | > 100 µM | > 100 µM | > 100 µM | > 100 µM | > 100 µM | > 100 µM | > 100 µM | > 100 µM | – | – | – | – | – | –
CC(=O)N(C(=O)CC(=O)N1N=C(c2ccccc2)C(N=Nc2ccccc2[N+](=O)[O-])C1=O)c1ccc(Cl)cc1 (stereo unspecified) | > 10 µM | > 10 µM | > 10 µM | > 10 µM | > 10 µM | > 10 µM | > 10 µM | > 10 µM | > 10 µM | > 10 µM | – | – | – | – | – | –
Cc1cc(C)nc(NS(=O)(=O)c2ccc(NC(=O)c3ccc4nc5ccccc5c(Nc5ccc(S(N)(=O)=O)cc5)c4c3)cc2)n1 | > 100 µM | > 100 µM | > 100 µM | > 100 µM | > 100 µM | > 100 µM | > 100 µM | > 100 µM | > 100 µM | > 100 µM | – | – | – | – | – | –
Nc1nccc(-c2c[nH]c3cc(Br)ccc23)n1 | 39 µM | 47.6 µM | 9.15 µM | 53.4 µM | 66 µM | > 100 µM | 36.7 µM | 99.4 µM | > 100 µM | > 100 µM | – | – | – | – | – | –
Cc1ccc(NC(=O)c2ccc(OP(=O)(O)Nc3ccc(C)cc3)cc2)cc1 | > 100 µM | > 100 µM | > 100 µM | > 100 µM | > 100 µM | > 100 µM | > 100 µM | > 100 µM | > 100 µM | > 100 µM | – | – | – | – | – | –

Compound | TGI (UO-31 renal) | TGI (UACC-62 melanoma) | TGI (EKVX NSCLC) | TGI (LOX IMVI melanoma) | TGI (ACHN renal) | TGI (MCF7 breast) | TGI (SK-MEL-5 melanoma) | TGI (SK-OV-3 ovarian) | TGI (NCI/ADR-RES ovarian) | TGI (T-47D breast) | GI50 (LOX IMVI melanoma) | GI50 (ACHN renal) | GI50 (SK-MEL-5 melanoma) | GI50 (SK-OV-3 ovarian) | GI50 (NCI/ADR-RES ovarian) | GI50 (T-47D breast)
Cc1ccc(-c2cc(-c3ccco3)c(C#N)c(=S)n2C2OC(CO)C(O)C(O)C2O)cc1 (stereo unspecified) | 52 µM and > 100 µM | 13.3 µM and > 100 µM | > 100 µM | 38.4 µM and > 100 µM | > 100 µM | > 100 µM | 18.2 µM and 30.8 µM | 10.7 µM and > 100 µM | > 100 µM | 84.9 µM and > 100 µM | 8.19 µM and 43.1 µM | 25.6 µM and 53.4 µM | 5.75 µM and 14.9 µM | 2.51 µM and 21.9 µM | 33.8 µM and > 100 µM | 23.6 µM and 53 µM
CCOC(=O)N1CCN(Cc2cc(=O)n3ccc(C)cc3n2)CC1 | > 100 µM | > 100 µM | > 100 µM | > 100 µM | > 100 µM | > 100 µM | > 100 µM | > 100 µM | > 100 µM | > 100 µM | – | – | – | – | – | –
CCCCOC(=O)Nc1ccc(S(=O)(=O)Nc2ccccc2Cl)cc1 | 80 µM | 32.7 µM | 57 µM | 34.7 µM | 65.8 µM | 42.1 µM | 24.3 µM | 33.8 µM | 43.4 µM | 87.1 µM | – | – | – | – | – | –
C[C@]12CCC3C4=C(CCC3C1CCC2=O)C(=O)[C@H]1O[C@H]1C4=O (stereo partly specified) | 5.1 µM | 9.34 µM | 27.7 µM | 5.18 µM | 6.77 µM | 4.14 µM | 23.9 µM | 28 µM | 17.3 µM | 2.78 µM | – | – | – | – | – | –
N#CC(NCc1cccc(CNC(C#N)c2ccccc2)c1)c1ccccc1 (stereo unspecified) | > 100 µM | > 100 µM | > 100 µM | 28.9 µM | > 100 µM | 56.6 µM | > 100 µM | > 100 µM | > 100 µM | > 100 µM | – | – | – | – | – | –
O=[N+]([O-])c1cc(C=NC23CC4CC(CC(C4)C2)C3)ccc1Cl | 15.8 µM | 20.9 µM | > 61.8 µM | 36.9 µM | 56.9 µM | 27.9 µM | 55.4 µM | > 100 µM | 70.9 µM | 40.8 µM | – | – | – | – | – | –
O=C(/C=C/c1ccccc1)C[C@@H](O)C[C@@H]1CC=CC(=O)O1 | 28.9 µM | 14.5 µM | 73.1 µM | 7.02 µM | 30.5 µM | 11.4 µM | 26.6 µM | 38.7 µM | > 85.5 µM | 42.2 µM | – | – | – | – | – | –
S=C(N/N=C(/c1ccccc1)c1ccccn1)N(Cc1ccccn1)Cc1ccccn1 | 1.65 µM | 2.21 µM | 1.7 µM | 1.74 µM | 0.74 µM | 5.02 µM | 3.12 µM | 1.66 µM | 1.44 µM | 2.82 µM | – | – | – | – | – | –
CC(=O)c1c2c(c3ccccc3c1O)O[C@@H]1OCC[C@H]21 | > 100 µM | > 100 µM | > 100 µM | > 100 µM | > 100 µM | > 100 µM | > 100 µM | > 100 µM | > 100 µM | > 100 µM | – | – | – | – | – | –
COC(=O)c1c(C)nc2c1cc(O)c1[nH]c(C)c(C)nc12 | > 100 µM | > 100 µM | > 100 µM | > 100 µM | > 100 µM | > 100 µM | > 100 µM | > 100 µM | > 100 µM | > 100 µM | – | – | – | – | – | –
Nc1c(-c2ccc(Cl)c(Cl)c2)c2ccc([N+](=O)[O-])cc2c(=O)n1-c1nc2ccccc2s1 | 18.1 µM | > 100 µM | 46.8 µM | 27.3 µM | 20.6 µM | 21.1 µM | 1.18 µM | 28.8 µM | 6.8 µM | > 24.9 µM | – | – | – | – | – | –
Cc1cc(-c2nc3ccc(F)cc3s2)ccc1NC(=O)[C@H](C)N | 14 µM | 3.6 µM | 23 µM | 3.99 µM | 22.9 µM | 13.1 µM | 26.3 µM | 28.2 µM | 28.5 µM | > 37.4 µM | – | – | – | – | – | –
NC1(c2cc3ccccc3s2)CCCC1 | > 100 µM | > 100 µM | > 100 µM | > 100 µM | > 100 µM | > 100 µM | 68.2 µM | > 100 µM | > 100 µM | > 100 µM | – | – | – | – | – | –
NS(=O)(=O)c1nnc(NC(=O)Nc2ccc(Cl)c(Cl)c2)s1 | 85.3 µM | 31.2 µM | 94.6 µM | 36.4 µM | > 100 µM | 88.3 µM | 30.8 µM | 63.4 µM | 55.7 µM | 55.3 µM | – | – | – | – | – | –
CC(=O)Nc1nc(NC(C)=O)c2[nH]c(CO)nc2n1 | > 100 µM | > 100 µM | > 100 µM | > 100 µM | > 100 µM | > 100 µM | > 100 µM | > 100 µM | > 100 µM | > 100 µM | – | – | – | – | – | –
